Values quoted from earlier work, collected in patent US11857524B2, “Stable oral suspensions of baclofen” (ANI Pharmaceuticals, Inc., priority 2021, dated 2024).
Where two headings read alike, the source gives them in different places.

- Solubility (in chloroform): insoluble
- Solubility (in methanol): very slightly soluble
- Solubility (in water): slightly soluble
Structure (SMILES): NCC(CC(=O)O)c1ccc(Cl)cc1 (stereo not drawn) [Baclofen, 4-amino-3-(4-chlorophenyl)-butanoic acid]
